The term IC50 denotes the concentration that gives 50% inhibition. In general, IC90 refers to the concentration needed for an effect of 90%. Low readings indicate greater potency, high ones weaker potency.

Where “and” joins values, the source holds several entries; their conditions need not be identical. Identical values can stand only once. Calls of active or inactive are those of the source. The rule behind the calls is not given here. Bounds are passed on as bounds.

The test system of this experiment is M. tuberculosis H37Rv growth inhibition with meropenem. The experiment is described as follows: H37Rv growth inhibition with and without meropenem, dose response, set 2 (AID 504703).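 Note: growth ran 7 days at 37 °C then overnight with Alamar Blue before reading.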
The mark [1] stands for this setting: M. tuberculosis H37Rv growth inhibition, measured here: IC50 without meropenem.
Where [2] appears, read: M. tuberculosis H37Rv growth inhibition, measured here: IC90 without meropenem.
The mark [3] stands for this setting: measured here: IC90 with meropenem.

Consider `N/C(=N\c1nc2ccccc2o1)NC(=O)C1CC1`, for which the IC50 under setting [1] is greater than 25 µM. Under setting [2], the IC90 was greater than 25 µM.

On to `CCc1ccc2nc(/N=C(\N)NC(=O)c3ccccc3)nc(C)c2c1`, for which the IC50 was 0.82 µM (inactive). In addition, under setting [1], the IC50 stood at 1.86 µM. In addition, under setting [2], the IC90 is greater than 12.5 µM. The compound also came in with an IC90 under setting [3] greater than 25 µM.

Under setting [1], `CCOc1ccc2[nH]ccc2c1` displayed an IC50 greater than 25 µM. Moreover, the IC90 under setting [2] was greater than 25 µM.

Under setting [1], `Cc1ccccc1OCC(=O)Nc1ccccc1N1CCCCC1` had an IC50 greater than 25 µM. Moreover, the IC90 is, setting by setting: under setting [2], greater than 25 µM; under setting [3], greater than 25 µM.

Turning to `Cc1ccc(OCC(=O)Nc2cccc3c(NC(=O)COc4ccc(C)cc4C)cccc23)c(C)c1`, the IC50 under setting [1] was greater than 25 µM. Under setting [2], this compound registered an IC90 greater than 25 µM.

On to `COc1ccc2oc(C(=O)Nc3nc4ccccc4[nH]3)c(C)c2c1`, for which the IC50 was 10.5 µM (inactive). Under setting [2], this compound came in with an IC90 greater than 25 µM. The compound also gave an IC90 under setting [3] greater than 25 µM.

Under setting [1], `CC(=O)c1c(C)n(-c2ccccc2C)c2ccc(O)cc12` displayed an IC50 greater than 25 µM. Moreover, the IC90 under setting [2] is greater than 25 µM.

As for `Cc1ccc(OCC(=O)Nc2cccc3ccccc23)c(C)c1`, the IC50 was 20.5 µM (inactive). Under setting [1], the IC50 is greater than 25 µM. Under setting [2], this compound yielded an IC90 greater than 25 µM. The IC90 under setting [3] is greater than 25 µM.

For the compound `CCOC(=O)c1cnc2cc(-c3ccc(C(C)(C)C)cc3)nn2c1N`, the IC50 was 1.99 µM (inactive). In addition, under setting [1], the IC50 was 1.15 µM and 4.11 µM. Under setting [2], this compound registered an IC90 greater than 25 µM. For the same compound, the IC90 under setting [3] is greater than 25 µM.

As to `CC(C)(C)c1ccc(OCC(=O)Nc2nc3ccccc3s2)cc1`, under setting [1], the IC50 is greater than 25 µM. For the same compound, the IC90 under setting [2] is greater than 25 µM.

On to `OCCCc1cn(-c2ccccc2)c2ccccc12`, for which the IC50 is 14.2 µM (inactive). The compound also registered an IC50 under setting [1] greater than 25 µM. Also, the IC90 under setting [2] was greater than 25 µM. Moreover, the IC90 under setting [3] is greater than 25 µM.

With `CCOc1ccc2c(c1)c(C(C)=O)c(C)n2-c1cccc(Cl)c1`, the IC50 is 10.5 µM (inactive). The half-inhibitory concentration (IC50) under setting [1] is greater than 25 µM. This compound also registered an IC90 under setting [2] greater than 25 µM. This compound yielded an IC90 under setting [3] greater than 25 µM.

`COC(=O)c1c(C)[nH]c2ccc(F)cc12` had an IC50 under setting [1] greater than 25 µM. This compound gave an IC90 under setting [2] greater than 25 µM.

On to `CC(=O)Nc1ccc2nc(NC(=O)Cc3ccccc3)sc2c1`, for which, under setting [1], the IC50 is greater than 25 µM. Under setting [2], this compound yielded an IC90 greater than 25 µM.

`Cc1cc2cc(F)ccc2[nH]1` returned an IC50 under setting [1] greater than 25 µM. The compound also returned an IC90 under setting [2] greater than 25 µM.

Take `CCOc1ccc2nc(NC(=O)C3(c4ccccc4)CCCC3)sc2c1`: the IC50 was 1.2 µM (inactive). The compound further displayed an IC50 under setting [1] of 2.08 µM. This compound registered an IC90 under setting [2] of 8.95 µM. Moreover, the IC90 under setting [3] turned out to be 4.16 µM.

Turning to `Cc1ccccc1OCC(=O)Nc1ncccn1`, the IC50 under setting [1] is greater than 25 µM. This compound came in with an IC90 under setting [2] greater than 25 µM.

With `S=C(Nc1ccccc1)Nc1ccc(Cl)cn1`, the IC50 under setting [1] was > 18.8 µM and 17.3 µM. For the same compound, the IC90 runs as follows: under setting [2], greater than 25 µM; under setting [3], greater than 25 µM.

Under setting [1], `O=C(COc1ccc(Cl)cc1)Nc1nc2ccc(F)cc2s1` returned an IC50 greater than 25 µM. For the same compound, the IC90 under setting [2] was greater than 25 µM.

In the case of `Cc1cccnc1NC(=S)NC(=O)c1cncc(Br)c1`, the IC50 is 2.71 µM (inactive). This compound had an IC50 under setting [1] of 4.21 µM. The IC90 under setting [2] is greater than 25 µM. For the same compound, the IC90 under setting [3] is greater than 25 µM.

In the case of `Oc1ccc2[nH]ccc2c1`, the IC50 under setting [1] was greater than 25 µM. Also, the IC90 under setting [2] was greater than 25 µM.

Compound `O=C(COc1cccc2ccccc12)Nc1nc2ccccc2s1` yielded an IC50 under setting [1] greater than 25 µM. This compound also came in with an IC90 under setting [2] greater than 25 µM.

The compound `Cc1ccccc1OCC(=O)Nc1nnn(C)n1` registered an IC50 under setting [1] greater than 25 µM. The IC90 under setting [2] is greater than 25 µM.

For the compound `COc1ccc2[nH]c(C)cc2c1`, the IC50 under setting [1] was greater than 25 µM. The compound also registered a concentration for an effect of 90% (IC90) under setting [2] greater than 25 µM.

With `CC(Oc1ccc(Cl)cc1)C(=O)Nc1nc2ccccc2s1` (centres undefined), under setting [1], the IC50 is greater than 25 µM. The compound further showed an IC90 under setting [2] greater than 25 µM.

Under setting [1], `N/C(=N\c1nc2ccccc2o1)NC(=O)c1ccccc1Br` displayed an IC50 of 8.26 µM. The IC90 reads like this: under setting [2], greater than 25 µM; under setting [3], greater than 25 µM.

In turn, `Cc1ccc(OCC(=O)Nc2ccc(Cl)cc2)c(C)c1` showed an IC50 under setting [1] greater than 25 µM. Under setting [2], the IC90 is greater than 25 µM.

`O=C(CSc1n[nH]c(=O)n1C1CC1)c1ccc2c(c1)OCCO2`: the IC50 was 4.57 µM (inactive). Under setting [1], this compound came in with an IC50 of 10.8 µM. The IC90 under setting [2] was greater than 25 µM. The compound further displayed an IC90 under setting [3] greater than 25 µM.

Regarding `CCOc1ccc(NC(=O)COc2ccc(C)cc2C)cc1`, under setting [1], the IC50 was greater than 25 µM. The IC90 under setting [2] is greater than 25 µM.

For `O=C(CCS(=O)(=O)c1ccc(F)cc1)Nc1nnc(-c2cccs2)o1`, the IC50 is > 18.8 µM (inactive) and 22.4 µM (inactive). For the same compound, the IC50 under setting [1] is greater than 25 µM. Also, the IC90 under setting [2] was greater than 25 µM. For the same compound, under setting [3], the IC90 is greater than 25 µM.

The compound `CCOc1ccc2nc(NC(=O)c3cnccn3)sc2c1` registered an IC50 under setting [1] greater than 25 µM. Under setting [2], this compound registered an IC90 greater than 25 µM.

Values taken from PubChem BioAssay AID504703 (Southern Research Specialized Biocontainment Screening …, 2011).
